What was measured:
[1] = target: T1, BaF3 cells expressing the target EGFR mutations (Homo sapiens, UniProt P00533, T790M, cells depend on it, form not given); assay: Antiproliferative activity (MTT) against BaF3 cells expressing the target EGFR mutations; format: cell-based; settings: BAF3 EGFR DEL T790M PURO POOL cells, read-out: IC50, BAF3 EGFR DEL T790M PURO POOL
T1 construct: IC50, BAF3 EGFR DEL T790M PURO POOL; other: BAF3 EGFR DEL T790M PURO POOL cells, MTT; other: BAF3 EGFR DEL T790M PURO POOL cells; MTT
T1 sequence (P00533 with tags, fused parts or gaps DEL746-750/T790M, form open): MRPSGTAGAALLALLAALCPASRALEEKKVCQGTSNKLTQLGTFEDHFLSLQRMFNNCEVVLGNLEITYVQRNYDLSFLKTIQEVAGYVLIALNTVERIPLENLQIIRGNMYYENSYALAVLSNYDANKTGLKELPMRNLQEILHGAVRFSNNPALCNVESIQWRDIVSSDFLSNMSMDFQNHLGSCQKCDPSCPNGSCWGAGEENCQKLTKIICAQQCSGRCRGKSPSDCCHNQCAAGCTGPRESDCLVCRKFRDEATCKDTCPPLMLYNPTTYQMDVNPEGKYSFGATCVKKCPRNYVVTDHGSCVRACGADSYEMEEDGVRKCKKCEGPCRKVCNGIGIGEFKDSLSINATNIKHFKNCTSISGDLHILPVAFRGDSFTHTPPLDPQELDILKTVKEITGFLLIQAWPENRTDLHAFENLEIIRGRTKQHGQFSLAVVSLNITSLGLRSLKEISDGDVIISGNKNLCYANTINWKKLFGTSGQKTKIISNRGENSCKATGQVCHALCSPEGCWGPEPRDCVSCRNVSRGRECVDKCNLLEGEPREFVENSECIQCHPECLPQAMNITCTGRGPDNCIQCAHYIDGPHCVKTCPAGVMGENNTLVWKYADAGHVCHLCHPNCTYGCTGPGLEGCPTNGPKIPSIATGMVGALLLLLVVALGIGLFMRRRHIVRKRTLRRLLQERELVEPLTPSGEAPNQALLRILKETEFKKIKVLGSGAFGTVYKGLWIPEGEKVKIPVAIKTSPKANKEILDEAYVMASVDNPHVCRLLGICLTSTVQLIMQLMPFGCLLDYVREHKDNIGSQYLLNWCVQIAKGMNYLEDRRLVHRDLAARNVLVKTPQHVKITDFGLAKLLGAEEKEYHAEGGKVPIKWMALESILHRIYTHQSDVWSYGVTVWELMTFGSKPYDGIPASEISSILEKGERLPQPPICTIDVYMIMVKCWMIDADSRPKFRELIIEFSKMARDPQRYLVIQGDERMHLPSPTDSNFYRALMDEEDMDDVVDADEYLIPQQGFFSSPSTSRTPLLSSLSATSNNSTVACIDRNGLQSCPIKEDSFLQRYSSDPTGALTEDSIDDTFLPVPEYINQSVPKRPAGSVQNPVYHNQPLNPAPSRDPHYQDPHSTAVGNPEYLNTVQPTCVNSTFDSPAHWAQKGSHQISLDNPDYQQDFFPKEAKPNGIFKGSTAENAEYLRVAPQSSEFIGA
Description: (§1) We also assessed the antiproliferative activity of compounds of Formula (I) against BaF3 cells expressing the target EGFR mutations or control (i.e., cell lines expressing wildtype EGFR). Assays were conducted using MTT.

[2] = target: T2, BaF3 cells expressing the target EGFR mutations (Homo sapiens, UniProt P00533, T790M/L858R, cells depend on it); assay: as above; format: cell-based; settings: BAF3 EGFR L858R-T790M PURO POOL cells, read-out: IC50, BAF3 EGFR L858R-T790M PURO POOL
T2 construct: IC50, BAF3 EGFR L858R-T790M PURO POOL; other: BAF3 EGFR L858R-T790M PURO POOL cells, MTT; IC50, BAF3 EGFR L858R-T790M PURO POOL; other: BAF3 EGFR L858R-T790M PURO POOL cells; MTT
T2 sequence (P00533 whole entry T790M/L858R): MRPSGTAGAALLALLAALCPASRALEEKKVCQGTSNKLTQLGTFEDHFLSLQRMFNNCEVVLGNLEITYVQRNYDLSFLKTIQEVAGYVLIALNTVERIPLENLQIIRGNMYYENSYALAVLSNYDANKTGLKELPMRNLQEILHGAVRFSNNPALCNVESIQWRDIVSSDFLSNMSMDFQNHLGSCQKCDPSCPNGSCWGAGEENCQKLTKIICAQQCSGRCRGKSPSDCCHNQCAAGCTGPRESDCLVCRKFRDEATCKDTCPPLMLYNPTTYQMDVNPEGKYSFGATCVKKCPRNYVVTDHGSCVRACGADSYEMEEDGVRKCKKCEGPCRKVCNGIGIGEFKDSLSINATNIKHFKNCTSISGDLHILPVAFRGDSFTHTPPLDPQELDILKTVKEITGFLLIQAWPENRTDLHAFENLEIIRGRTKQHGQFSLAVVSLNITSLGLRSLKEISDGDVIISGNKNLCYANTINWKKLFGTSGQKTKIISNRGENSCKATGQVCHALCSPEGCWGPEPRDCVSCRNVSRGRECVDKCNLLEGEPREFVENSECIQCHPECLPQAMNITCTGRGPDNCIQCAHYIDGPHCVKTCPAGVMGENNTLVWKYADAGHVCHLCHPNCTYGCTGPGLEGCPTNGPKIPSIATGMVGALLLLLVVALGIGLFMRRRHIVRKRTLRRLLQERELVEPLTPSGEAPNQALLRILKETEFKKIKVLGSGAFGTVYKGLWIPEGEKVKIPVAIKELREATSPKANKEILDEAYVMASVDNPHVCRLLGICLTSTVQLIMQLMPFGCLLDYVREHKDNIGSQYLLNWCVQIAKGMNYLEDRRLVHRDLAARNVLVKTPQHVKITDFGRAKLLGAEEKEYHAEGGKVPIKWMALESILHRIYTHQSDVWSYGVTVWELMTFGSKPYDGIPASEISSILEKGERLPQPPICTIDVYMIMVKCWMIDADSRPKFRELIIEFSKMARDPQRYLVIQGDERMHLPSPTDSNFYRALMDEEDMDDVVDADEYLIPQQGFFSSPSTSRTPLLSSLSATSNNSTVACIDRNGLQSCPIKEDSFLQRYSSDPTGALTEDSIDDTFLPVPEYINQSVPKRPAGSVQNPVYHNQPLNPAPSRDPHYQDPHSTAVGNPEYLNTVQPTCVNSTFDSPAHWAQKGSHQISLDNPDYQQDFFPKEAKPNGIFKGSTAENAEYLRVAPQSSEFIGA
Description: as §1

EGFR L858R = EGFR L858R (Homo sapiens, UniProt P00533, L858R); assay: Kinase inhibitory activity against EGFR bearing the L858R mutation; format: biochemical; settings: EGFR L858R; 10 μM ATP; read-out: IC50 for kinase inhibition, EGFR L858R
Description: (§2) Kinase inhibitory activity of the compounds was measured against human EGFR (native sequence) and against EGFR bearing the L858R mution and the L858R/T790M double mutation (EGFR, L858R, and L858R/T790M, respectively in Table 1). Additional assays can be conducted with EGFR deletion mutants such as delE746-A750 with or without the additional T790M mutation. Assay conditions included 10 pt curves with 3 μM top concentration (singlicates) and 10 μM ATP.

[3] = system: BaF3 cells expressing wildtype EGFR; assay: Antiproliferative activity (MTT) against control BaF3 cells expressing wildtype EGFR; format: cell-based; settings: Mus musculus, BAF3 PARENTAL cells (control)
Description: as §1

EGFR L858R/T790M = EGFR L858R/T790M (Homo sapiens, UniProt P00533, L858R/T790M); assay: Kinase inhibitory activity against EGFR bearing the L858R/T790M double mutation; format: biochemical; settings: EGFR L858R/T790M double mutation; 10 μM ATP; read-out: IC50 for kinase inhibition, EGFR L858R T790M
Sequence of EGFR L858R/T790M (P00533 25-1210 T790M/L858R): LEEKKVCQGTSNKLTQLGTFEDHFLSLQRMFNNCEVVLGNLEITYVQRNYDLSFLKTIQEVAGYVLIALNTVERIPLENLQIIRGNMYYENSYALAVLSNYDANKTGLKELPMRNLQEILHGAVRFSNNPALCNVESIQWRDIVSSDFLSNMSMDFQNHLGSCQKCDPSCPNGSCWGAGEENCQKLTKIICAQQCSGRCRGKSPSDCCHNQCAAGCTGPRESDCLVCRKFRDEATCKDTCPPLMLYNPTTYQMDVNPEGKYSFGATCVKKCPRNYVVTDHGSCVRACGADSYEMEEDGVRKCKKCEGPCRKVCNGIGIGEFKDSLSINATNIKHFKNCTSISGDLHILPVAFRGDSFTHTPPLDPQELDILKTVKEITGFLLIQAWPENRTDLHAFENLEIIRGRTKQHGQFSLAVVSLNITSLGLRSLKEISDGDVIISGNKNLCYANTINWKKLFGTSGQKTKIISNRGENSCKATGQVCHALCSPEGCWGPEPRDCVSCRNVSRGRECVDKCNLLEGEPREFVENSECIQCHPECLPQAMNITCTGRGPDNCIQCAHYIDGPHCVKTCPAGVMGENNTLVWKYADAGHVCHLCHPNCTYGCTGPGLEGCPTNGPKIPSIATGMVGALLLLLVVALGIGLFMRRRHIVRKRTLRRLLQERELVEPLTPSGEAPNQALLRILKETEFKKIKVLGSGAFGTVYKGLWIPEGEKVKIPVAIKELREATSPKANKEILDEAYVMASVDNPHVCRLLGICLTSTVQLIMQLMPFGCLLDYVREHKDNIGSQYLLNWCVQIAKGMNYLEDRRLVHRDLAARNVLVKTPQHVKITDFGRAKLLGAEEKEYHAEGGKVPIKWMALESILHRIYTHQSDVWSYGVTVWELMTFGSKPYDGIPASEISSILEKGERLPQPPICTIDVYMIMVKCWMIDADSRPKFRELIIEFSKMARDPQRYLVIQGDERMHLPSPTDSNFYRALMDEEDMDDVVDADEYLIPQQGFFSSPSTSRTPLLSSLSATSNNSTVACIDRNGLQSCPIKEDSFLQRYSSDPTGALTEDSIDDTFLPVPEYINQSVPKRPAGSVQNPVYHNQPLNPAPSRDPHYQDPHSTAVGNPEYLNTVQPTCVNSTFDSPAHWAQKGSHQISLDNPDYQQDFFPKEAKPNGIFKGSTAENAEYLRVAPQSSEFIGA
Description: as §2

[4] = target: human EGFR (native sequence) (Homo sapiens, UniProt P00533); assay: Kinase inhibitory activity against human EGFR (native sequence); format: biochemical; settings: human EGFR native sequence; 10 μM ATP; read-out: IC50 for kinase inhibition, EGFR
Sequence of human EGFR (native sequence) (P00533 25-1210): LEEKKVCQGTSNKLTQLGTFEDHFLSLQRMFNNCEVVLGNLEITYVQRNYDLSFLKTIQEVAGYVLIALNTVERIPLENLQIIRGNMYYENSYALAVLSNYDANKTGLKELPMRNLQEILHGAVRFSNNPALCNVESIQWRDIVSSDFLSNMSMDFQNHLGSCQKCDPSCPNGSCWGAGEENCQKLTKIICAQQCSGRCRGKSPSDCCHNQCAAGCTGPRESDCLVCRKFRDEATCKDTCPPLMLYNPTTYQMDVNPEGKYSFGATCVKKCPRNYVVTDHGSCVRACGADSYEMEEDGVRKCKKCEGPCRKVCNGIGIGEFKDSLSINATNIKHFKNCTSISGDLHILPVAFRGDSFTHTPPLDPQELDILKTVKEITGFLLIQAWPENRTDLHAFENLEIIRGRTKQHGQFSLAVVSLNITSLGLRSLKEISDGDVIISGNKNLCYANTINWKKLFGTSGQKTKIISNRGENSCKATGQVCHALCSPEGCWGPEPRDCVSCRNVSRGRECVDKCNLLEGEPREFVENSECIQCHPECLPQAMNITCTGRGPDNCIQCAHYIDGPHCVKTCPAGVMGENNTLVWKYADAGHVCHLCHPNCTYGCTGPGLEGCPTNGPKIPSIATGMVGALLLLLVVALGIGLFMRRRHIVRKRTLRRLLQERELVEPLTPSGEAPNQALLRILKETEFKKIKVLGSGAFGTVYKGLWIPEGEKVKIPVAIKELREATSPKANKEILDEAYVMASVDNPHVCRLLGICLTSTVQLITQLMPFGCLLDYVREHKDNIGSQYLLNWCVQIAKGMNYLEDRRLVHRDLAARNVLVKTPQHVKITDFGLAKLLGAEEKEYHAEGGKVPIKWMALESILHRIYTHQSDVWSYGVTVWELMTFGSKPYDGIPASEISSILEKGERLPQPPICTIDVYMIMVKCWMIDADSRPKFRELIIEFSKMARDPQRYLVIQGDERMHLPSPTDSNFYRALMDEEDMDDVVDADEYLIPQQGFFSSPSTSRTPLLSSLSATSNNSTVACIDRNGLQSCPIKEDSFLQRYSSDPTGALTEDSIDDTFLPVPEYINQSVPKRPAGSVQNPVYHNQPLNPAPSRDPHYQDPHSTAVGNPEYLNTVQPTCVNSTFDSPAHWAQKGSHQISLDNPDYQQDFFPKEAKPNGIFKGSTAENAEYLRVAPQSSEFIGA
Description: as §2

SMILES	GI50 [1] [nM]	GI50 [2] [nM]	IC50 (EGFR L858R) [nM]	IC50 (EGFR L858R/T790M) [nM]	IC50 [4] [nM]	IC50 [3] [nM]
C=CC(=O)Nc1cc(Nc2ncc(Cl)c(Nc3ccccc3P(C)(C)=O)n2)c(OC)cc1N1CCC(O)C1 (stereo not drawn) [Example 32, N-(5-((5-chloro-4-((2-(dimethylphosphoryl)phenyl)amino)pyrimidin-2-yl)amino)-2-(3-hydroxypyrrolidin-1-yl)-4-methoxyphenyl)acrylamide]	50 to 100	101 to 250	< 50	< 50	< 50	≥ 250
C=CC(=O)Nc1cc(Nc2ncc(Cl)c(Nc3ccccc3P(C)(C)=O)n2)c(OC)cc1N1CCC(N2CCC(O)C2)C1 (stereo not drawn) [Example 35, N-(5-((5-chloro-4-((2-(dimethylphosphoryl)phenyl)amino)pyrimidin-2-yl)amino)-2-(3-hydroxy-[1,3′-bipyrrolidin]-1′-yl)-4-methoxyphenyl)acrylamide]	101 to 250	≥ 250	< 50	< 50	< 50	≥ 250
C=CC(=O)Nc1cc(Nc2ncc(Cl)c(Nc3ccccc3P(C)(C)=O)n2)c(OC)cc1N1CCC(N2CCN(C)CC2)C1 (stereo not drawn) [Example 37, N-(5-((5-chloro-4-((2-(dimethylphosphoryl)phenyl)amino)pyrimidin-2-yl)amino)-4-methoxy-2-(3-(4-methylpiperazin-1-yl)pyrrolidin-1-yl)phenyl)acrylamide]	50 to 100	101 to 250	< 50	< 50	< 50	≥ 250
C=CC(=O)Nc1cc(Nc2ncc(Cl)c(Nc3ccccc3P(C)(C)=O)n2)c(OC)cc1N1CCC(N2CCC(O)CC2)C1 (stereo not drawn) [Example 39, N-(5-((5-chloro-4-((2-(dimethylphosphoryl)phenyl)amino)pyrimidin-2-yl)amino)-2-(3-(4-hydroxypiperidin-1-yl)pyrrolidin-1-yl)-4-methoxyphenyl)acrylamide]	101 to 250	≥ 250	< 50	< 50	< 50	≥ 250
C=CC(=O)Nc1cc(Nc2ncc(Cl)c(Nc3ccccc3P(C)(C)=O)n2)c(OC)cc1N1CCC(N2CCN(CCO)CC2)C1 (stereo not drawn) [Example 40, N-(5-((5-chloro-4-((2-(dimethylphosphoryl)phenyl)amino)pyrimidin-2-yl)amino)-2-(3-(4-(2-hydroxyethyl)piperazin-1-yl)pyrrolidin-1-yl)-4-methoxyphenyl)acrylamide]	≥ 250	≥ 250	< 50	< 50	< 50	≥ 250
C=C(CN1CCN(S(C)(=O)=O)CC1)C(=O)Nc1ccc(OC)c(Nc2ncc(Cl)c(Nc3ccccc3P(C)(C)=O)n2)c1 [Example 44, N-(3-((5-chloro-4-((2-(dimethylphosphoryl)phenyl)amino)pyrimidin-2-yl)amino)-4-methoxyphenyl)-2-((4-(methylsulfonyl)piperazin-1-yl)methyl)acrylamide]	< 50	< 50	< 50	< 50	< 50	≥ 250
C=C(CN1CCC(N2CCN(C)CC2)CC1)C(=O)Nc1ccc(OC)c(Nc2ncc(Cl)c(Nc3ccccc3P(C)(C)=O)n2)c1 [Example 45, N-(3-((5-chloro-4-((2-(dimethylphosphoryl)phenyl)amino)pyrimidin-2-yl)amino)-4-methoxyphenyl)-2-((4-(4-methylpiperazin-1-yl)piperidin-1-yl)methyl)acrylamide]	< 50	< 50	< 50	< 50	< 50	≥ 250
C=C(CN1CCS(=O)(=O)CC1)C(=O)Nc1ccc(OC)c(Nc2ncc(Cl)c(Nc3ccccc3P(C)(C)=O)n2)c1 [Example 46, N-(3-((5-chloro-4-((2-(dimethylphosphoryl)phenyl)amino)pyrimidin-2-yl)amino)-4-methoxyphenyl)-2-((1,1-dioxidothiomorpholino)methyl)acrylamide]	≥ 250	≥ 250	50 to 100	< 50	≥ 250	≥ 250

Second part, led by results:

GI50 [1] [nM]	GI50 [2] [nM]	IC50 (EGFR L858R) [nM]	IC50 (EGFR L858R/T790M) [nM]	IC50 [4] [nM]	SMILES	IC50 [3] [nM]
< 50	< 50	< 50	< 50	< 50	C=CC(=O)Nc1cc(Nc2ncc(Cl)c(Nc3ccccc3P(C)(C)=O)n2)c(OC)cc1N1CC(N2CCCC2)C1 [Example 31, N-(5-((5-chloro-4-((2-(dimethylphosphoryl)phenyl)amino)pyrimidin-2-yl)amino)-4-methoxy-2-(3-(pyrrolidin-1-yl)azetidin-1-yl)phenyl)acrylamide]	≥ 250
< 50	< 50	< 50	< 50	< 50	C=CC(=O)Nc1cc(Nc2ncc(Cl)c(Nc3ccccc3P(C)(C)=O)n2)c(OC)cc1N1CCC(N2CCCCC2)C1 (stereo not drawn) [Example 33, N-(5-((5-chloro-4-((2-(dimethylphosphoryl)phenyl)amino)pyrimidin-2-yl)amino)-4-methoxy-2-(3-(piperidin-1-yl)pyrrolidin-1-yl)phenyl)acrylamide]	≥ 250
< 50	< 50	< 50	< 50	< 50	C=CC(=O)Nc1cc(Nc2ncc(Cl)c(Nc3ccccc3P(C)(C)=O)n2)c(OC)cc1N1CCC(N(CC)CC)C1 (stereo not drawn) [Example 34, N-(5-((5-chloro-4-((2-(dimethylphosphoryl)phenyl)amino)pyrimidin-2-yl)amino)-2-(3-(diethylamino)pyrrolidin-1-yl)-4-methoxyphenyl)acrylamide]	≥ 250
< 50	< 50	< 50	< 50	< 50	C=CC(=O)Nc1cc(Nc2ncc(Cl)c(Nc3ccccc3P(C)(C)=O)n2)c(OC)cc1N1CCC(N2CCCC2)C1 (stereo not drawn) [Example 36, N-(2-([1,3′-bipyrrolidin]-1′-yl)-5-((5-chloro-4-((2-(dimethylphosphoryl)phenyl)amino)pyrimidin-2-yl)amino)-4-methoxyphenyl)acrylamide]	≥ 250
< 50	101 to 250	< 50	< 50	< 50	C=CC(=O)Nc1cc(Nc2ncc(Cl)c(Nc3ccccc3P(C)(C)=O)n2)c(OC)cc1N1CCC(N(C)CCN(CC)CC)C1 (stereo not drawn) [Example 38, N-(5-((5-chloro-4-((2-(dimethylphosphoryl)phenyl)amino)pyrimidin-2-yl)amino)-2-(3-((2-(diethylamino)ethyl)(methyl)amino)pyrrolidin-1-yl)-4-methoxyphenyl)acrylamide]	≥ 250
< 50	< 50	< 50	< 50	< 50	C=CC(=O)Nc1cc(Nc2ncc(Cl)c(Nc3ccccc3P(C)(C)=O)n2)c(OC)cc1N1CCC(N(C)CCOC)C1 (stereo not drawn) [Example 41, N-(5-((5-chloro-4-((2-(dimethylphosphoryl)phenyl)amino)pyrimidin-2-yl)amino)-4-methoxy-2-(3-((2-methoxyethyl)(methyl)amino)pyrrolidin-1-yl)phenyl)acrylamide]	≥ 250
< 50	< 50	< 50	< 50	< 50	C=C(CN1CCCC1)C(=O)Nc1ccc(OC)c(Nc2ncc(Cl)c(Nc3ccccc3P(C)(C)=O)n2)c1 [Example 42, N-(3-((5-chloro-4-((2-(dimethylphosphoryl)phenyl)amino)pyrimidin-2-yl)amino)-4-methoxyphenyl)-2-(pyrrolidin-1-ylmethyl)acrylamide]	≥ 250
< 50	< 50	< 50	< 50	< 50	C=C(CN1CCCCC1)C(=O)Nc1ccc(OC)c(Nc2ncc(Cl)c(Nc3ccccc3P(C)(C)=O)n2)c1 [Example 43, N-(3-((5-chloro-4-((2-(dimethylphosphoryl)phenyl)amino)pyrimidin-2-yl)amino)-4-methoxyphenyl)-2-(piperidin-1-ylmethyl)acrylamide]	≥ 250

Reference: patent US9834571B2, “Compounds for inhibiting cell proliferation in EGFR-driven cancers” (ARIAD Pharmaceuticals, Inc., priority 2012, dated 2017)
